In brackets after ≈: the same amount, converted by molar mass. Starred links: 1 amine or outer side, 2 acyl side, 3 side chain; linkers in the order of their positions; H or OH if unused. Non-standard residues stand in square brackets, D forms with d. Residues, ends and D or L forms follow the SMILES beside them. Gly(N-(CH2)3-guanidino) = N=C(N)NCCCNCC(=O)O; X1 = N=C(N)NCCN(CC(=O)[*:2])[*:1]; NhArg = N=C(N)NCCCCNCC(=O)O
Legend:
[1] = Toxicity in human erythrocytes assessed as hemolytic activity at 300 uM after 60 mins; format: cell-based, Erythrocyte; details: read-out: Activity
Escherichia coli [2] = test: Antimicrobial activity against Escherichia coli O18K1H7 after 18 hrs by broth microdilution susceptibility test; format: functional; details: O18K1H7, 18 h
Escherichia coli [3] = test: Antimicrobial activity against Escherichia coli ML35 after 18 hrs by broth microdilution susceptibility test; format: functional; details: ML35, 18 h
[4] = test system: Salmonella enterica subsp. enterica; test: Antimicrobial activity against Salmonella enteritidis PD1 after 18 hrs by broth microdilution susceptibility test; format: functional, Salmonella enterica subsp. enterica serovar Enteritidis; details: PD1, 18 h
[5] = Toxicity in human erythrocytes assessed as hemolytic activity at 30 uM after 60 mins; format: cell-based, Erythrocyte; details: read-out: Activity
[6] = test system: Salmonella enterica subsp. enterica; test: Antimicrobial activity against Salmonella enteritidis D5 after 18 hrs by broth microdilution susceptibility test; format: functional, Salmonella enterica subsp. enterica serovar Enteritidis; details: D5, 18 h
[7] = test system: Salmonella enterica subsp. enterica; test: Antimicrobial activity against Salmonella Typhimurium ATCC 14028 after 18 hrs by broth microdilution susceptibility test; format: functional, Salmonella enterica subsp. enterica serovar Typhimurium; details: ATCC 14028, 18 h
Escherichia coli [8] = test: Antimicrobial activity against Escherichia coli ATCC 25922 after 18 hrs by broth microdilution susceptibility test; format: functional; details: ATCC 25922, 18 h
[9] = Membrane permeabilization in eukaryotic membrane model consisting of single unilamellar vesicle of L-alpha-phosphatidylcholine-cholesterol assessed as 5(6)-carboxyfluorescein release at high peptide-to-lipid ratio after 50 mins by fluorescence assay; format: ADME, cell membranes
[10] = Membrane permeabilization in eukaryotic membrane model consisting of single unilamellar vesicle of L-alpha-phosphatidylcholine-cholesterol assessed as 5(6)-carboxyfluorescein release at high peptide-to-lipid ratio after 20 mins by fluorescence assay; format: ADME, cell membranes
Klebsiella pneumoniae = test: Antimicrobial activity against Klebsiella pneumoniae 22 after 18 hrs by broth microdilution susceptibility test; format: functional; details: Klebsiella pneumoniae, 22, 18 h
[11] = Chemical stability assessed as compound degradation at 2 mg/mL after 24 hrs by HPLC and ESI-MS analysis in presence of trypsin; format: physicochemical; details: isolated protein
[12] = Chemical stability assessed as compound degradation at 2 mg/mL within 30 mins by HPLC and ESI-MS analysis in presence of trypsin; format: physicochemical; details: isolated protein, 0.5 h

SMILES | hemolysis at 1 h, 300 µM [1] [%] | MIC (Escherichia coli [2]) [µM] | MIC (Escherichia coli [3]) [µM] | MIC [4] [µM] | hemolysis at 1 h, 30 µM [5] [%] | MIC [6] [µM] | MIC [7] [µM] | MIC (Escherichia coli [8]) [µM] | Activity [9] | Activity [10] | MIC (Klebsiella pneumoniae) [µM] | Stability [11] | Stability [12]
CC[C@H](C)[C@H](NC(=O)[C@H](Cc1ccc(O)cc1)NC(=O)[C@@H](NC(=O)[C@@H]1CCCN1C(=O)CN(CCCNC(=N)N)C(=O)[C@H](CC(N)=O)NC(=O)[C@H](CC(N)=O)NC(=O)CN)C(C)C)C(=O)N1CCC[C@H]1C(=O)N[C@@H](CCC(N)=O)C(=O)N1CCC[C@H]1C(=O)N(CCCNC(=N)N)CC(=O)N1CCC[C@H]1C(=O)N1CCC[C@H]1C(=O)N[C@@H](Cc1cnc[nH]1)C(=O)N1CCC[C@H]1C(=O)N(CCCNC(=N)N)CC(=O)N[C@@H](CC(C)C)C(=O)O (H-GNN[Gly(N-(CH2)3-guanidino)]PVYIPQP[Gly(N-(CH2)3-guanidino)]PPHP[Gly(N-(CH2)3-guanidino)]L-OH) | 0.06 | > 128 | – | – | – | – | – | – | – | – | – | – | –
CC[C@H](C)[C@H](NC(=O)[C@H](Cc1ccc(O)cc1)NC(=O)[C@@H](NC(=O)[C@@H]1CCCN1C(=O)[C@H](CCCNC(=N)N)NC(=O)[C@H](CC(N)=O)NC(=O)[C@H](CC(N)=O)NC(=O)CN)C(C)C)C(=O)N1CCC[C@H]1C(=O)N[C@@H](CCC(N)=O)C(=O)N1CCC[C@H]1C(=O)N(CCCCNC(=N)N)CC(=O)N1CCC[C@H]1C(=O)N[C@@H](Cc1cnc[nH]1)C(=O)N1CCC[C@H]1C(=O)N[C@@H](CCCNC(=N)N)C(=O)N[C@@H](CC(C)C)C(=O)O (H-GNNRPVYIPQP[NhArg]PHPRL-OH) | 1.31 | 32 (≈ 64.8 µg/mL) | 16 (≈ 32.4 µg/mL) | 64 (≈ 130 µg/mL) | ≤ 2 | 64 (≈ 130 µg/mL) | 32 (≈ 64.8 µg/mL) | 32 (≈ 64.8 µg/mL) | Not Active | Not Active | > 128 | – | –
CC[C@H](C)[C@H](NC(=O)[C@H](Cc1ccc(O)cc1)NC(=O)[C@@H](NC(=O)[C@@H]1CCCN1C(=O)[C@H](CCCNC(=N)N)NC(=O)[C@H](CC(N)=O)NC(=O)[C@H](CC(N)=O)NC(=O)CN)C(C)C)C(=O)N1CCC[C@H]1C(=O)N[C@@H](CCC(N)=O)C(=O)N1CCC[C@H]1C(=O)N[C@@H](CCCNC(=N)N)C(=O)N1CCC[C@H]1C(=O)N[C@@H](Cc1cnc[nH]1)C(=O)N1CCC[C@H]1C(=O)N[C@@H](CCCNC(=N)N)C(=O)N[C@@H](CC(C)C)C(=O)O (H-GNNRPVYIPQPRPHPRL-OH) | – | – | – | – | ≤ 2 | – | > 128 | 128 (≈ 257 µg/mL) | Not Active | Not Active | > 128 | – | –
CC[C@H](C)[C@H](NC(=O)[C@H](Cc1ccc(O)cc1)NC(=O)[C@@H](NC(=O)[C@@H]1CCCN1C(=O)[C@H](CCCNC(=N)N)NC(=O)[C@H](CC(N)=O)NC(=O)[C@H](CC(N)=O)NC(=O)CN)C(C)C)C(=O)N1CCC[C@H]1C(=O)N[C@@H](CCC(N)=O)C(=O)N1CCC[C@H]1C(=O)N(CCCNC(=N)N)CC(=O)N1CCC[C@H]1C(=O)N1CCC[C@H]1C(=O)N[C@@H](Cc1cnc[nH]1)C(=O)N1CCC[C@H]1C(=O)N[C@@H](CCCNC(=N)N)C(=O)N[C@@H](CC(C)C)C(=O)O (H-GNNRPVYIPQP[Gly(N-(CH2)3-guanidino)]PPHPRL-OH) | 2 | 16 (≈ 33.7 µg/mL) | 16 (≈ 33.7 µg/mL) | 32 (≈ 67.5 µg/mL) | ≤ 2 | 16 (≈ 33.7 µg/mL) | 16 (≈ 33.7 µg/mL) | 16 (≈ 33.7 µg/mL) | Not Active | Not Active | > 128 | – | –
CC[C@H](C)[C@H](NC(=O)[C@H](Cc1ccc(O)cc1)NC(=O)[C@@H](NC(=O)[C@H](CCCNC(=N)N)NC(=O)[C@H](CC(N)=O)NC(=O)[C@H](CC(N)=O)NC(=O)CN)C(C)C)C(=O)N1CCC[C@H]1C(=O)N[C@@H](CCC(N)=O)C(=O)N1CCC[C@H]1C(=O)N[C@@H](CCCNC(=N)N)C(=O)N1CCC[C@H]1C(=O)N[C@@H](Cc1cnc[nH]1)C(=O)N1CCC[C@H]1C(=O)N[C@@H](CCCNC(=N)N)C(=O)N[C@@H](CC(C)C)C(=O)O (H-GNNRVYIPQPRPHPRL-OH) | – | – | – | – | ≤ 2 | – | > 128 | > 128 | Not Active | Not Active | > 128 | – | –
CC[C@H](C)[C@H](NC(=O)[C@H](Cc1ccc(O)cc1)NC(=O)[C@@H](NC(=O)[C@@H]1CCCN1C(=O)[C@H](CCCNC(=N)N)NC(=O)[C@H](CC(N)=O)NC(=O)[C@H](CC(N)=O)NC(=O)CN)C(C)C)C(=O)N1CCC[C@H]1C(=O)N[C@@H](CCC(N)=O)C(=O)N1CCC[C@H]1C(=O)N[C@@H](CCCNC(=N)N)C(=O)N1CCC[C@H]1C(=O)N1CCC[C@H]1C(=O)N[C@@H](Cc1cnc[nH]1)C(=O)N1CCC[C@H]1C(=O)N(CCCNC(=N)N)CC(=O)N[C@@H](CC(C)C)C(=O)O (H-GNNRPVYIPQPRPPHP[Gly(N-(CH2)3-guanidino)]L-OH) | 0.44 | > 128 | > 128 | > 128 | ≤ 2 | > 128 | > 128 | > 128 | Not Active | Not Active | > 128 | Stable | –
CC[C@H](C)[C@H](NC(=O)[C@H](Cc1ccc(O)cc1)NC(=O)[C@@H](NC(=O)[C@@H]1CCCN1C(=O)CN(CCCNC(=N)N)C(=O)[C@H](CC(N)=O)NC(=O)[C@H](CC(N)=O)NC(=O)CN)C(C)C)C(=O)N1CCC[C@H]1C(=O)N[C@@H](CCC(N)=O)C(=O)N1CCC[C@H]1C(=O)N[C@@H](CCCNC(=N)N)C(=O)N1CCC[C@H]1C(=O)N1CCC[C@H]1C(=O)N[C@@H](Cc1cnc[nH]1)C(=O)N1CCC[C@H]1C(=O)N[C@@H](CCCNC(=N)N)C(=O)N[C@@H](CC(C)C)C(=O)O (H-GNN[Gly(N-(CH2)3-guanidino)]PVYIPQPRPPHPRL-OH) | 0.06 | 16 (≈ 33.7 µg/mL) | 16 (≈ 33.7 µg/mL) | 32 (≈ 67.5 µg/mL) | ≤ 2 | 32 (≈ 67.5 µg/mL) | 16 (≈ 33.7 µg/mL) | 16 (≈ 33.7 µg/mL) | Not Active | Not Active | > 128 | – | –
CC[C@H](C)[C@H](NC(=O)[C@H](Cc1ccc(O)cc1)NC(=O)[C@@H](NC(=O)[C@@H]1CCCN1C(=O)[C@H](CCCNC(=N)N)NC(=O)[C@H](CC(N)=O)NC(=O)[C@H](CC(N)=O)NC(=O)CN)C(C)C)C(=O)N1CCC[C@H]1C(=O)N[C@@H](CCC(N)=O)C(=O)N1CCC[C@H]1C(=O)N[C@@H](CCCNC(=N)N)C(=O)N1CCC[C@H]1C(=O)N1CCC[C@H]1C(=O)N[C@@H](Cc1cnc[nH]1)C(=O)N1CCC[C@H]1C(=O)N(CCCCNC(=N)N)CC(=O)N[C@@H](CC(C)C)C(=O)O (H-GNNRPVYIPQPRPPHP[NhArg]L-OH) | 0.81 | > 128 | > 128 | > 128 | ≤ 2 | > 128 | > 128 | > 128 | Not Active | Not Active | > 128 | – | –
CC[C@H](C)[C@H](NC(=O)[C@H](Cc1ccc(O)cc1)NC(=O)[C@@H](NC(=O)[C@@H]1CCCN1C(=O)[C@H](CCCNC(=N)N)NC(=O)[C@H](CC(N)=O)NC(=O)[C@H](CC(N)=O)NC(=O)CN)C(C)C)C(=O)N1CCC[C@H]1C(=O)N[C@@H](CCC(N)=O)C(=O)N1CCC[C@H]1C(=O)N(CCNC(=N)N)CC(=O)N1CCC[C@H]1C(=O)N1CCC[C@H]1C(=O)N[C@@H](Cc1cnc[nH]1)C(=O)N1CCC[C@H]1C(=O)N[C@@H](CCCNC(=N)N)C(=O)N[C@@H](CC(C)C)C(=O)O (H-GNNRPVYIPQP[X1]PPHPRL-OH) | 0.87 | 32 (≈ 67 µg/mL) | 16 (≈ 33.5 µg/mL) | 64 (≈ 134 µg/mL) | ≤ 2 | 64 (≈ 134 µg/mL) | 32 (≈ 67 µg/mL) | 32 (≈ 67 µg/mL) | Not Active | Not Active | > 128 | – | –
CC[C@H](C)[C@H](NC(=O)[C@H](Cc1ccc(O)cc1)NC(=O)[C@@H](NC(=O)[C@@H]1CCCN1C(=O)[C@H](CCCNC(=N)N)NC(=O)[C@H](CC(N)=O)NC(=O)[C@H](CC(N)=O)NC(=O)CN)C(C)C)C(=O)N1CCC[C@H]1C(=O)N[C@@H](CCC(N)=O)C(=O)N1CCC[C@H]1C(=O)N[C@@H](CCCNC(=N)N)C(=O)N1CCC[C@H]1C(=O)N1CCC[C@H]1C(=O)N[C@@H](Cc1cnc[nH]1)C(=O)N1CCC[C@H]1C(=O)N[C@@H](CCCNC(=N)N)C(=O)N[C@@H](CC(C)C)C(=O)O [APIDAECIN] | 1.19 | 8 (≈ 16.9 µg/mL) | 8 (≈ 16.9 µg/mL) | 8 (≈ 16.9 µg/mL) | ≤ 2 | 8 (≈ 16.9 µg/mL) | 4 (≈ 8.43 µg/mL) | 8 (≈ 16.9 µg/mL) | Not Active | Not Active | 64 (≈ 135 µg/mL) | – | Unstable
CC[C@H](C)[C@H](NC(=O)[C@H](Cc1ccc(O)cc1)NC(=O)[C@@H](NC(=O)[C@@H]1CCCN1C(=O)[C@H](CCCNC(=N)N)NC(=O)[C@H](CC(N)=O)NC(=O)[C@H](CC(N)=O)NC(=O)CN)C(C)C)C(=O)N1CCC[C@H]1C(=O)N[C@@H](CCC(N)=O)C(=O)N1CCC[C@H]1C(=O)N[C@@H](CCCNC(=N)N)C(=O)N1CCC[C@H]1C(=O)N1CCC[C@H]1C(=O)N[C@@H](Cc1cnc[nH]1)C(=O)N1CCC[C@H]1C(=O)N(CCNC(=N)N)CC(=O)N[C@@H](CC(C)C)C(=O)O (H-GNNRPVYIPQPRPPHP[X1]L-OH) | 0.62 | > 128 | > 128 | > 128 | ≤ 2 | > 128 | > 128 | > 128 | Not Active | Not Active | > 128 | – | –

Source: ChEMBL document CHEMBL1152983, “Substitution of the arginine/leucine residues in apidaecin Ib with peptoid residues: effect on antimicrobial activity, cellular uptake, and proteolytic degradation” (J Med Chem, 2009)
